Assay results as given in patent US20140323500A1, “NADPH OXIDASE 4 INHIBITORS AND USE THEREOF” (GENKYOTEX SA, priority 2011, published 2014).
pKi: −log10 of the molar value.

Target: T1, human Nox2 (Homo sapiens, UniProt P04839)
T1 construct: host or cells: T-REx-CHO (hNOX2 T-REx-CHO), tetracycline-induced; membrane fraction
T1 sequence (P04839 2-570 limits assumed): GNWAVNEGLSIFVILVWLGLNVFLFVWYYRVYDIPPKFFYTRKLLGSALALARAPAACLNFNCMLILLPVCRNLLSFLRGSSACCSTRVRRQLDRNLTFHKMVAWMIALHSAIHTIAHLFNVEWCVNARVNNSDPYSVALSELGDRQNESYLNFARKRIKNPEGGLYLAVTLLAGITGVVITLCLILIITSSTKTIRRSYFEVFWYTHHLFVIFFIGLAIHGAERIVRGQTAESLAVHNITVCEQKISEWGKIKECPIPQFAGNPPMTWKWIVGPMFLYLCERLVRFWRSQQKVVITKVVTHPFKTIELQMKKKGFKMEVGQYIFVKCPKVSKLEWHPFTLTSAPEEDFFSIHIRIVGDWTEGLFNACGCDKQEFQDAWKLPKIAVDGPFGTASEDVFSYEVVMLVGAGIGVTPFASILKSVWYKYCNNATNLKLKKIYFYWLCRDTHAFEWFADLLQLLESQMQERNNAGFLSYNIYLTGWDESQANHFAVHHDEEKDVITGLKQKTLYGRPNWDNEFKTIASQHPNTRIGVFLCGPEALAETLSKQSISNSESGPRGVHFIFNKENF
T1 sequence (P13498 2-195 partner limits assumed): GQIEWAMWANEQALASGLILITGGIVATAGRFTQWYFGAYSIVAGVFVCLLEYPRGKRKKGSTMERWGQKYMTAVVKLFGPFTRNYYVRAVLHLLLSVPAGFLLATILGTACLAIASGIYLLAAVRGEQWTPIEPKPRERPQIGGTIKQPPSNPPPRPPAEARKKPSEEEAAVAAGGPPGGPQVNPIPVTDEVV
Assay: ROS production by membranes expressing human Nox2, cell-free Amplex Red assay
Type: biochemical
Details: cell-free membranes, Amplex Red; Cheng-Prusoff; average of at least three experiments in triplicate; read-out: Ki hNox2
In short: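 Membranes from tetracycline-induced (1 μg/ml, 24 h) T-REx-CHO cells stably expressing hNox2 with p22 and cofactors, incubated in PBS with Amplex Red, HRP and cofactors; NADPH starts ROS production. Compounds 1 nM–100 μM, 20 min at 37 °C, then fluorescence (544/590 nm) read for 10 min; Ki by Cheng-Prusoff.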

SMILES: COc1ccc(-c2c3c(=O)n(-c4ccccc4OC)[nH]c3cc(=O)n2Cc2cccnc2)c(F)c1 [Compound (1), 4-(2-fluoro-4-methoxyphenyl)-2-(2-methoxyphenyl)-5-(pyridin-3-ylmethyl)-1H-pyrazolo[4,3-c]pyridine-3,6(2H,5H)-dione]
- pKi: 6.09
